Results on 6 compounds are retold here after ChEMBL document CHEMBL1201862, “PubChem BioAssay data set” (2004).

Activity calls are given as the source filed them.

The target in one assay is Troponin, cardiac muscle (Homo sapiens, UniProt P19429+P45379+P63316). In words: Fluorescence-based biochemical high throughput dose response assay for activators of the calcium sensitivity of cardiac Regulated Thin Filaments (RTF). [Related pubchem assays (depositor defined):AID493008, AID493018, AID504382, AID504383]. The assay is classed as protein-complex assay.
The nature of assay [1]: viability loss in THP-1 monocytes – THP-1 cells, cytotoxicity control for Vif-APOBEC3G degradation inhibitor project, dose response (AID 1117359). The format is functional. The following applies: THP-1.
Assay [2] addresses T1, Runt-related transcription factor 1/Core-binding factor subunit beta (Homo sapiens, UniProt Q01196+Q13951). In words: disruptors of Runt domain/CBFb-SMMHC interaction – biochemical, FRET, Cerulean-Runt, Venus-CBFb-SMMHC, uHTS, […] (AID 1434). The format is protein assay.
The target of assay [3] is Eukaryotic translation initiation factor 4E (Mus musculus, UniProt P63073). Nature of the assay: blockers of eIF4G binding by eIF4E – biochemical, TR-FRET, dose response (AID 855).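 Note: potency for disrupting eIF4E binding to eIF4GI seen as loss of FRET.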 The assay is classed as functional. Background: In TR-FRET formats the signal depends on donor and acceptor labels being close together.
Assay [4] addresses T1, Runt-related transcription factor 1/Core-binding factor subunit beta. Nature of the assay: Confirmation of compounds inhibiting the binding between the RUNX1 Runt domain and CBFb-SMMHC via a time resolved fluorescence resonance energy transfer (TR-FRET) assay. [Related pubchem assays (depositor defined):AID1434, AID1438, AID1496, AID1560, AID1645]. The format is protein assay.

Assay [5] deals with T2, Polyadenylate-binding protein 1 (Homo sapiens, UniProt P11940). In words: MLLE domain peptide-binding blockers, IC50 – biochemical, fluorescence polarization, FITC-PAM2 peptide, dose response (AID 602259). The assay is classed as functional. The settings on record: read-out: IC50_Mean. In general terms: Fluorescence polarisation rises when a labelled molecule tumbles more slowly, as on binding a larger partner.

Assay [6] concerns the target T3, Mannose-6-phosphate isomerase (Homo sapiens, UniProt P34949).
T3 sequence (P34949 whole entry): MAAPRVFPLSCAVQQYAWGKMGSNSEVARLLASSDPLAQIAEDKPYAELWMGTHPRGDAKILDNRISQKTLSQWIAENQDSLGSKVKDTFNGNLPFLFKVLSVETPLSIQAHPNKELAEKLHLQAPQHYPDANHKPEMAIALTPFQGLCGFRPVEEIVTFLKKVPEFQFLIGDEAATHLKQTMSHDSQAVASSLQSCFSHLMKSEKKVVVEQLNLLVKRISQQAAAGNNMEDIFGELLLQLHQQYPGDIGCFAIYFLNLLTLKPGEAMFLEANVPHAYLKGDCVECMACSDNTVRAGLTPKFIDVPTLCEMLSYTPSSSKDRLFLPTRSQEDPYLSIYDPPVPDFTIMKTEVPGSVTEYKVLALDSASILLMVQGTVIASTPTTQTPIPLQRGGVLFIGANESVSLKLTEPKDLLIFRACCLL
In words: MPI inhibition at elevated mannose 6-phosphate – biochemical, fluorescence intensity, high mannose 6-phosphate, primary screen (AID 1220).

In assay [7] the target is T2, Polyadenylate-binding protein 1. Nature of the assay: MLLE binding blockers, Cy5 peptide tracer – biochemical, fluorescence polarization, Cy5-PAM2 peptide, secondary, miRNA deadenylation inhibitor project, dose response (AID 602260). The settings on record: read-out: IC50_Mean. The format is functional.
The target in assay [8] is Glucose-6-phosphate 1-dehydrogenase (Homo sapiens, UniProt P11413). In words: inhibition of Homo sapiens G6PD, dose series – biochemical, fluorescence, selectivity assay for P. falciparum G6PD inhibitor project, dose response (AID 504792). The format is functional.
Assay [9] concerns the target T1, Runt-related transcription factor 1/Core-binding factor subunit beta. In words: Confirmation of compounds inhibiting the binding between the RUNX1 Runt domain and CBFb-SMMHC via a fluorescence resonance energy transfer (FRET) assay. [Related pubchem assays (depositor defined):AID1434, AID1438, AID1496, AID1550, AID1645]. The assay is classed as protein assay.
Another assay addresses Procathepsin L (Homo sapiens, UniProt P07711).
Assay [10] deals with Induced myeloid leukemia cell differentiation protein Mcl-1 (Homo sapiens, UniProt Q07820). The assay is classed as functional.
A further assay addresses Aspartyl aminopeptidase (Plasmodium falciparum 3D7, UniProt Q8I2J3).
Assay [11] addresses T4, Corticotropin-releasing factor receptor 2/Corticotropin-releasing factor-binding protein (Homo sapiens, UniProt P24387+Q13324).
T4 sequence (Q13324 whole entry): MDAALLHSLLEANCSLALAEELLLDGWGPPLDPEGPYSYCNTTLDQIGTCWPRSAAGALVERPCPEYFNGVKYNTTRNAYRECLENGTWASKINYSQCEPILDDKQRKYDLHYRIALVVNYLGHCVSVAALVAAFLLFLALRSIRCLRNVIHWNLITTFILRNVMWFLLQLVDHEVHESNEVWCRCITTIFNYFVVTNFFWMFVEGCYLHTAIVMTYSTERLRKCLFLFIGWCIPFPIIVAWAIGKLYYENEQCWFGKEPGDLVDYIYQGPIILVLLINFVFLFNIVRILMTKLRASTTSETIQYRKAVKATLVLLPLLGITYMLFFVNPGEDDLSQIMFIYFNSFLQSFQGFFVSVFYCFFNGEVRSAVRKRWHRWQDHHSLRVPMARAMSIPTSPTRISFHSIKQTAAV
T4 sequence (P24387 whole entry): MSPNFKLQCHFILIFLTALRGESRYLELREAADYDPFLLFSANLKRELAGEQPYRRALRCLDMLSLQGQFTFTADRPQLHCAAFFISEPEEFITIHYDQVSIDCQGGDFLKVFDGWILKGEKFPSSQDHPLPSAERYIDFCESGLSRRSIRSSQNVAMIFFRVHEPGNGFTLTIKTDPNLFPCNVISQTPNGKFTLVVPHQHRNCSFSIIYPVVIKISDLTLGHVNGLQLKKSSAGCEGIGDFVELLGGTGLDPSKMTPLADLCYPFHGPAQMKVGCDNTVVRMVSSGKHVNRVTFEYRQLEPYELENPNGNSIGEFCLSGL
Nature of the assay: activators of CRF receptor 2 with binding protein – uHTS hits, confirmation (AID 602473). The assay is classed as functional. The settings on record: read-out: EC50_Mean.

Assay [12] addresses T5, Coagulation factor XII (Homo sapiens, UniProt P00748).
T5 sequence (P00748 whole entry): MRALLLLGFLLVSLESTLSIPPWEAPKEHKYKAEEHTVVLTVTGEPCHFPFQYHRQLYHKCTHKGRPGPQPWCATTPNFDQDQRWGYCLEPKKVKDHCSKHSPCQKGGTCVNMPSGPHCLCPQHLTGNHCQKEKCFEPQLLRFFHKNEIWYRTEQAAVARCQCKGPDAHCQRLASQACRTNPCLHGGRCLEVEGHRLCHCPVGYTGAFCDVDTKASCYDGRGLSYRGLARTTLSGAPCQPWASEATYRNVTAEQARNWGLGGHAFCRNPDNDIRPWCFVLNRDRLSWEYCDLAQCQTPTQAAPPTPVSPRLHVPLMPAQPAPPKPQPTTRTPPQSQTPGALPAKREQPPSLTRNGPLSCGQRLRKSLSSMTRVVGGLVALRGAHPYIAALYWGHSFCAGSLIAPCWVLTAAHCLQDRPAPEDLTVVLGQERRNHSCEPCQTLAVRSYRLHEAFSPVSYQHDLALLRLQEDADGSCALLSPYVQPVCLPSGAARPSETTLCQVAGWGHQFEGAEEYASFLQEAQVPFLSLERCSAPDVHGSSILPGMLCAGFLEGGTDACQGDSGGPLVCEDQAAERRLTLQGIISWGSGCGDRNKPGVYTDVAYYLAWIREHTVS
Nature of the assay: Factor XIIa Dose Response Confirmation from Single Well HTS. [Related pubchem assays (depositor defined):AID701]. The format is functional.

For assay [13], the target named is T5, Coagulation factor XII. In words: activated coagulation factor XII inhibitor potency, concentration-effect curve, cell-free (AID 716). The format is functional.
In assay [14] the target is Voltage-dependent T-type calcium channel subunit alpha-1H (Homo sapiens, UniProt O95180). In words: human CACNA1H calcium influx blockade – cell-based, synthetic library set 2, HEK293 HH8, Fluo-4, SAR follow-up (AID 493023). The assay is classed as functional.
Assay [15] concerns the target T6, Kappa-type opioid receptor (Homo sapiens, UniProt P41145). Nature of the assay: SAR analysis of small molecule antagonists of the kappa opioid receptor via a luminescent beta-arrestin assay - Set 3. [Related pubchem assays (depositor defined):AID1777, AID1778, AID1785, AID1786, AID1966, AID2133, AID2136, AID2285, AID2495]. The assay is classed as functional.
The target of another assay is Mu-type opioid receptor (Homo sapiens, UniProt P35372). In words: SAR Analysis of Antagonists of the MOR Receptor using an Image-Based Assay - Set 3. [Related pubchem assays (depositor defined):AID1777, AID1785, AID1786, AID1966, AID2133, AID2136, AID2284, AID2285, AID2420]. The assay is classed as functional.
Assay [16] addresses T6, Kappa-type opioid receptor. In words: SAR analysis of Antagonists of the Kappa Opioid Receptor (KOR) using an Image-Based Assay - Set 3. [Related pubchem assays (depositor defined):AID1777, AID1785]. The assay is classed as functional.
For assay [17], the target named is Delta-type opioid receptor (Homo sapiens, UniProt P41143). In words: SAR Analysis of Antagonists of the DOR Receptor using an Image-Based Assay - Set 3. [Related pubchem assays (depositor defined):AID1777, AID1785]. The assay is classed as functional.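 Note: U2OS cells expressing DOR1 and beta-arrestin GFP stimulated with 100 nM SNC80; imaging of GFP-tagged beta-arrestin moving into spots after receptor activation.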

For the compound `O=C(COc1ccccc1F)NC1CC1`, on Troponin, cardiac muscle, the EC50 is > 71.5 µM (inactive).
A word on the CC50: it is the concentration that lowers cell viability or growth by half. Consider `CN1CCc2cccc3c2[C@@H]1Cc1ccc(O)c(O)c1-3`, for which, in assay [1], the CC50 was 15 µM (active). Besides, the IC50 is 7.12 µM (active) in assay [2]; > 64 µM (inactive) in assay [3]; 17.8 µM (active) in assay [4]; > 66 µM (inactive) in assay [5]; 24.9 µM (active) in [6]; > 66 µM (inactive) in [7]. Further, the IC50 in assay [8] is 38.4 µM (inactive); in assay [9], 8.48 µM (active); against Procathepsin L, > 59.6 µM (not active); in [10], < 0.4 µM (active); on Aspartyl aminopeptidase, 3.1 µM (active).
Consider `CCn1c(C)c(C(C)=O)c(N2CCN(c3ccccc3)CC2)nc1=S`, for which the EC50 in [11] was > 53 µM (inactive). For the same compound, at Coagulation factor XII [12], the IC50 is > 50 µM (inactive).
Regarding `NC(=O)Cn1cnc(-c2ccccc2)c1`, the IC50 at Coagulation factor XII [13] was > 50 µM (inactive).
As for `O=C(NC[C@@H]1[C@H]2CN(Cc3ccccc3)C[C@@H]12)c1cc(Cl)cc(Cl)c1`, in assay [14], the EC50 is 1.5 µM (active).
On to `O=C(Cn1c(=O)c2cccn2c2cccnc21)NCCCN1CCOCC1`, for which the IC50 is > 20 µM (inactive) in assay [15], > 32 µM (inactive) at Mu-type opioid receptor, > 32 µM (inactive) in [16] and > 32 µM (inactive) in assay [17].
